We go through 30 substances from US20250101436A1, “APTAMERS AND SMALL MOLECULE LIGANDS” (MeiraGTx UK II Limited, priority 2021, published 2025).

The test system of the first data set is luciferase gene expression in HEK 293 cells in response to Comp. 004. Description: Screen of riboswitch constructs with 12C6-1 variant aptamers (libraries N1-N5) against Comp. 004, luciferase in HEK 293 cells. To be noted: library N2 variant aptamers (J2-3, P3-J3-3a, J3a-2 randomized) of 12C6-1 in riboswitch constructs; in response to Comp. 004; HEK 293 cells. The class given is cell-based, human. From the text:
Cloning of riboswitch constructs containing 12C6-1 variant aptamer sequences: 12C6-1 aptamer sequence was used as template, and nucleobases were randomized at certain position in the sequence. Aptamers incorporating random mutagenesis were synthesized by Integrated DNA Technologies, Inc. Golden Gate cloning strategy (New England Biolabs, NEB) was used to clone the synthesized aptamer sequences into intron-exon-intron cassette to replace the 12C6-1 aptamer in the Luci-12C6-1 riboswitch construct, generating riboswitch constructs containing variant aptamer sequences.
To further improve the riboswitch activity in responding to Comp. 004 and related compounds, the aptamer sequence 12C6-1 was subject to mutagenesis to generate aptamer variants, and the riboswitches containing the variant aptamers were screened against Comp. 004 for the ones that have improved dynamic range of induced gene expression (the fold induction), in comparison with the fold induction by parental riboswitch construct Luci-12C6-1. […] These loop or junction region alone or together with stem region in proximity were chosen for random mutagenesis to generate riboswitches with re-engineered aptamer sequences with improved activity.
Five aptamer libraries N1, N2, N3, N4 and N5 were generated by randomizing nucleotides at positions in J2-4, J2-3/J3-3a/J3a-2/P3, L3a, J4-5/J5-4/P4 and L5 regions of the parent 12C6-1 sequence, respectively (see FIGS. 3a and 3b). Single bacterial colonies were picked and plasmids containing variant riboswitch constructs were screened in HEK 293 cells for improved gene regulation activity in response to 25 µM Comp. 004 as compared to parent riboswitch construct Luci-12C6-1.
As for “N2_2H6 (CTGGGGAGTCCTTCATGC; chemistry not given here)”, the “Fold (induction of luciferase gene expression)” value (“Fold” for short) is recorded as 1.0 fold. Take “N2_2H7 (CTGGGGAGTCCTTCATGC; chemistry not given here)”: the “Fold” value stood at 0.8 fold. As to “N2_2H8 (CTGGGGAGTCCTTCATGC; chemistry not given here)”, the “Fold” value is on record as 1.4 fold. For “N2_2H9 (CTGGGGAGTCCTTCATGC; chemistry not given here)”, the “Fold” value is 0.9 fold.

As for “N2_2H10 (CTGGGGAGTCCTTCATGC; chemistry not given here)”, the “Fold” value came out at 1.0 fold. For “N2_2H11 (CTGGGGAGTCCTTCATGC; chemistry not given here)”, the “Fold” value was 1.2 fold.

Staying with this data set, now noted: library N5 variant aptamers (L5, X16-X21 randomized) of 12C6-1 in riboswitch constructs; in response to Comp. 004 treatment; HEK 293 cells.
In the case of “N5_1A1 (CTGGGGAGTCCT; chemistry not given here)”, the “Fold” value was determined as 670.2 fold. For the substance “N5_1A2 (CTGGGGAGTCCT; chemistry not given here)”, the “Fold” value was 672.2 fold. For “N5_1A3 (CTGGGGAGTCCT; chemistry not given here)”, the “Fold” value was 228.1 fold. For the substance “N5_1A5 (CTGGGGAGTCCT; chemistry not given here)”, the “Fold” value is reported as 291.5 fold. The same measure, in the same setting: as for “N5_1A6 (CTGGGGAGTCCT; chemistry not given here)”, the figure is 638.8 fold; as for “N5_1A7 (CTGGGGAGTCCT; chemistry not given here)”, 659.9 fold; as for “N5_1A8 (CTGGGGAGTCCT; chemistry not given here)”, 589.4 fold.

For the substance “N5_1A9 (CTGGGGAGTCCT; chemistry not given here)”, the “Fold” value is 804.7 fold. Still for that read-out and setting: for “N5_1A10 (CTGGGGAGTCCT; chemistry not given here)” the value was 674.4 fold; for “N5_1A11 (CTGGGGAGTCCT; chemistry not given here)”, 793.5 fold.

On to “N5_1B2 (CTGGGGAGTCCT; chemistry not given here)”, for which the “Fold” value is on record as 747.7 fold. Take “N5_1B3 (CTGGGGAGTCCT; chemistry not given here)”: the “Fold” value was determined as 792.0 fold.

For the substance “N5_1B5 (CTGGGGAGTCCT; chemistry not given here)”, the “Fold” value was 780.8 fold. With “N5_1B6 (CTGGGGAGTCCT; chemistry not given here)”, the “Fold” value is 1381.8 fold. “N5_1B7 (CTGGGGAGTCCT; chemistry not given here)”: the “Fold” value was 662.1 fold. Still for that read-out and setting: for “N5_1B8 (CTGGGGAGTCCT; chemistry not given here)” the value was 645.1 fold; for “N5_1B9 (CTGGGGAGTCCT; chemistry not given here)”, 941.5 fold. Same read-out and setting: as for “N5_1B10 (CTGGGGAGTCCT; chemistry not given here)”, the figure is 1013.6 fold; as for “N5_1B11 (CTGGGGAGTCCT; chemistry not given here)”, 477.1 fold; as for “N5_1C2 (CTGGGGAGTCCT; chemistry not given here)”, 687.2 fold.

In the case of “N5_1C3 (CTGGGGAGTCCT; chemistry not given here)”, the “Fold” value is 664.1 fold. In the case of “N5_1C4 (CTGGGGAGTCCT; chemistry not given here)”, the “Fold” value is reported as 665.0 fold. The same measure, in the same setting: as for “N5_1C5 (CTGGGGAGTCCT; chemistry not given here)”, the figure is 966.1 fold; as for “N5_1C7 (CTGGGGAGTCCT; chemistry not given here)”, 485.7 fold.
